# In PubChem BioAssay AID2060488 (Molecular Pharmacology Branch, DTP, NCI, 2025):
# Test system: 966289-007-R4-J1-PDC complex spheroid viability
# Assay: Anticancer human tumor 966289-007-R4-J1-PDC patient-derived pancreatic adenocarcinoma cell line growth inhibition [GQUAD]
# Settings: for IC50: curve of first compound; for viability, T/C: stronger effect = lower value
# Outline: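 Tumor cells were grown as complex spheroids with HUVEC endothelial cells and mesenchymal stem cells as stroma. G-quadruplex stabilizers were combined with targeted agents over half-log dilutions from near the clinical Cmax, or from 10 microM.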
# [1] = second compound 0.0316 µM, first compound 0.0316 µM
# [2] = second compound 0.0316 µM, first compound 0.1 µM
# [3] = second compound 0.0316 µM, first compound 0.316 µM
# [4] = second compound 0.0316 µM, first compound 1 µM
# [5] = second compound 0.0316 µM, first compound 3.16 µM
# [6] = second compound 0.0316 µM, first compound 10 µM
# [7] = second compound 0.1 µM, first compound 0.0316 µM
# [8] = second compound 0.1 µM, first compound 0.1 µM
# [9] = second compound 0.1 µM, first compound 0.316 µM
# [10] = second compound 0.1 µM, first compound 1 µM
# [11] = second compound 0.1 µM, first compound 3.16 µM
# [12] = second compound 0.1 µM, first compound 10 µM
# [13] = second compound 0.316 µM, first compound 0.0316 µM
# [14] = second compound 0.316 µM, first compound 0.1 µM
# [15] = second compound 0.316 µM, first compound 0.316 µM
# [16] = second compound 0.316 µM, first compound 1 µM
# [17] = second compound 0.316 µM, first compound 3.16 µM
# [18] = second compound 0.316 µM, first compound 10 µM
# [19] = second compound 1 µM, first compound 0.0316 µM
# [20] = second compound 1 µM, first compound 0.1 µM
# [21] = second compound 1 µM, first compound 0.316 µM
# [22] = second compound 1 µM, first compound 1 µM
# [23] = second compound 1 µM, first compound 3.16 µM
# [24] = second compound 1 µM, first compound 10 µM
# [25] = second compound 3.16 µM, first compound 0.0316 µM
# [26] = second compound 3.16 µM, first compound 0.1 µM
# [27] = second compound 3.16 µM, first compound 0.316 µM
# [28] = second compound 3.16 µM, first compound 1 µM
# [29] = second compound 3.16 µM, first compound 3.16 µM
# [30] = second compound 3.16 µM, first compound 10 µM
# [31] = second compound 10 µM, first compound 0.0316 µM
# [32] = second compound 10 µM, first compound 0.1 µM
# [33] = second compound 10 µM, first compound 0.316 µM
# [34] = second compound 10 µM, first compound 1 µM
# [35] = second compound 10 µM, first compound 3.16 µM
# [36] = second compound 10 µM, first compound 10 µM
# 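Also: spheroids exposed to the agents for seven days before readout.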
# 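For viability, T/C in this document: percent viability relative to DMSO vehicle control wells taken as 100%.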
smiles,measurement,setting,value
CCCS(=O)(=O)Nc1ccc(F)c(C(=O)c2c[nH]c3ncc(-c4ccc(Cl)cc4)cc23)c1F + Cc1[nH]c2ccc(F)cc2c1-c1nc2c3cccnc3c3ncccc3c2[nH]1,IC50,second compound 0.0316 µM,9390 nM
same,IC50,second compound 0.1 µM,8560 nM
same,IC50,second compound 0.316 µM,8400 nM
same,IC50,second compound 1 µM,8670 nM
same,IC50,second compound 3.16 µM,7250 nM
same,IC50,second compound 10 µM,7830 nM
same,"viability, T/C",[1],111%
same,"viability, T/C",[2],105%
same,"viability, T/C",[3],116%
same,"viability, T/C",[4],113%
same,"viability, T/C",[5],113%
same,"viability, T/C",[6],46.3%
same,"viability, T/C",[7],101%
same,"viability, T/C",[8],110%
same,"viability, T/C",[9],113%
same,"viability, T/C",[10],112%
same,"viability, T/C",[11],111%
same,"viability, T/C",[12],40.5%
same,"viability, T/C",[13],101%
same,"viability, T/C",[14],108%
same,"viability, T/C",[15],110%
same,"viability, T/C",[16],114%
same,"viability, T/C",[17],112%
same,"viability, T/C",[18],39.3%
same,"viability, T/C",[19],97.6%
same,"viability, T/C",[20],112%
same,"viability, T/C",[21],115%
same,"viability, T/C",[22],114%
same,"viability, T/C",[23],116%
same,"viability, T/C",[24],41.4%
same,"viability, T/C",[25],110%
same,"viability, T/C",[26],114%
same,"viability, T/C",[27],115%
same,"viability, T/C",[28],110%
same,"viability, T/C",[29],108%
same,"viability, T/C",[30],27.6%
same,"viability, T/C",[31],104%
same,"viability, T/C",[32],111%
same,"viability, T/C",[33],115%
same,"viability, T/C",[34],112%
same,"viability, T/C",[35],112%
same,"viability, T/C",[36],33.5%
COc1cc(C2c3cc4c(cc3C(OC3OC5COC(C)OC5C(O)C3O)C3COC(=O)C23)OCO4)cc(OC)c1O (stereo not drawn) + Cc1[nH]c2ccc(F)cc2c1-c1nc2c3cccnc3c3ncccc3c2[nH]1,IC50,second compound 0.0316 µM,321 nM
same,IC50,second compound 0.1 µM,273 nM
same,IC50,second compound 0.316 µM,312 nM
same,IC50,second compound 1 µM,303 nM
same,IC50,second compound 3.16 µM,252 nM
same,IC50,second compound 10 µM,220 nM
same,"viability, T/C",[1],107%
same,"viability, T/C",[2],104%
same,"viability, T/C",[3],50.5%
same,"viability, T/C",[4],4.72%
same,"viability, T/C",[5],2.07%
same,"viability, T/C",[6],0.7%
same,"viability, T/C",[7],107%
same,"viability, T/C",[8],105%
same,"viability, T/C",[9],41.7%
same,"viability, T/C",[10],7.49%
same,"viability, T/C",[11],1.48%
same,"viability, T/C",[12],0.65%
same,"viability, T/C",[13],102%
same,"viability, T/C",[14],112%
same,"viability, T/C",[15],49.2%
same,"viability, T/C",[16],7.18%
same,"viability, T/C",[17],1.57%
same,"viability, T/C",[18],0.55%
same,"viability, T/C",[19],99.4%
same,"viability, T/C",[20],110%
same,"viability, T/C",[21],48%
same,"viability, T/C",[22],7.65%
same,"viability, T/C",[23],1.61%
same,"viability, T/C",[24],0.65%
same,"viability, T/C",[25],108%
same,"viability, T/C",[26],99.6%
same,"viability, T/C",[27],37.6%
same,"viability, T/C",[28],6.91%
same,"viability, T/C",[29],2.31%
same,"viability, T/C",[30],0.77%
same,"viability, T/C",[31],101%
same,"viability, T/C",[32],97.2%
same,"viability, T/C",[33],28.1%
same,"viability, T/C",[34],3.87%
same,"viability, T/C",[35],1.57%
same,"viability, T/C",[36],0.58%
COc1cccc2c1C(=O)c1c(O)c3c(c(O)c1C2=O)CC(O)(C(=O)CO)CC3OC1CC(N)C(O)C(C)O1 (stereo not drawn) + Cc1[nH]c2ccc(F)cc2c1-c1nc2c3cccnc3c3ncccc3c2[nH]1,IC50,second compound 0.0316 µM,67.3 nM
same,IC50,second compound 0.1 µM,63.6 nM
same,IC50,second compound 0.316 µM,61.1 nM
same,IC50,second compound 1 µM,61.2 nM
same,IC50,second compound 3.16 µM,56.5 nM
same,IC50,second compound 10 µM,52 nM
same,"viability, T/C",[1],114%
same,"viability, T/C",[2],16.4%
same,"viability, T/C",[3],1.91%
same,"viability, T/C",[4],0.7%
same,"viability, T/C",[5],0.21%
same,"viability, T/C",[6],0.6%
same,"viability, T/C",[7],104%
same,"viability, T/C",[8],15.1%
same,"viability, T/C",[9],2.16%
same,"viability, T/C",[10],0.91%
same,"viability, T/C",[11],0.22%
same,"viability, T/C",[12],0.26%
same,"viability, T/C",[13],100%
same,"viability, T/C",[14],12.6%
same,"viability, T/C",[15],2.39%
same,"viability, T/C",[16],0.78%
same,"viability, T/C",[17],0.23%
same,"viability, T/C",[18],0.33%
same,"viability, T/C",[19],97.1%
same,"viability, T/C",[20],14.7%
same,"viability, T/C",[21],2.52%
same,"viability, T/C",[22],0.71%
same,"viability, T/C",[23],0.32%
same,"viability, T/C",[24],0.5%
same,"viability, T/C",[25],87.9%
same,"viability, T/C",[26],12.9%
same,"viability, T/C",[27],2.39%
same,"viability, T/C",[28],0.86%
same,"viability, T/C",[29],0.29%
same,"viability, T/C",[30],0.56%
same,"viability, T/C",[31],79.9%
same,"viability, T/C",[32],10.9%
same,"viability, T/C",[33],1.72%
same,"viability, T/C",[34],0.61%
same,"viability, T/C",[35],0.4%
same,"viability, T/C",[36],0.57%
O=c1[nH]cc(F)c(=O)[nH]1 + Cc1[nH]c2ccc(F)cc2c1-c1nc2c3cccnc3c3ncccc3c2[nH]1,IC50,second compound 0.0316 µM,159 nM
same,IC50,second compound 0.1 µM,186 nM
same,IC50,second compound 0.316 µM,181 nM
same,IC50,second compound 1 µM,164 nM
same,IC50,second compound 3.16 µM,150 nM
same,IC50,second compound 10 µM,93.4 nM
same,"viability, T/C",[1],111%
same,"viability, T/C",[2],74.5%
same,"viability, T/C",[3],13.6%
same,"viability, T/C",[4],5.76%
same,"viability, T/C",[5],6.03%
same,"viability, T/C",[6],6.51%
same,"viability, T/C",[7],112%
same,"viability, T/C",[8],92.4%
same,"viability, T/C",[9],13.9%
same,"viability, T/C",[10],6.57%
same,"viability, T/C",[11],5.93%
same,"viability, T/C",[12],6.8%
same,"viability, T/C",[13],95.9%
same,"viability, T/C",[14],90.5%
same,"viability, T/C",[15],12.1%
same,"viability, T/C",[16],7.51%
same,"viability, T/C",[17],5.56%
same,"viability, T/C",[18],6.35%
same,"viability, T/C",[19],96.3%
same,"viability, T/C",[20],76.5%
same,"viability, T/C",[21],14.8%
same,"viability, T/C",[22],7.21%
same,"viability, T/C",[23],6.11%
same,"viability, T/C",[24],6.82%
same,"viability, T/C",[25],110%
same,"viability, T/C",[26],68.8%
same,"viability, T/C",[27],15.2%
same,"viability, T/C",[28],9.36%
same,"viability, T/C",[29],7.92%
same,"viability, T/C",[30],9.72%
same,"viability, T/C",[31],114%
same,"viability, T/C",[32],46%
same,"viability, T/C",[33],14.6%
same,"viability, T/C",[34],9.18%
same,"viability, T/C",[35],6.61%
same,"viability, T/C",[36],7.61%
